Assay [1] concerns NCI-H1975 cells. In words: Cell proliferation assay (Celltiter 96), NCI-H1975. The following applies: read-out: IC50 NCI-H1975; Table 1; IC50 ± S.D., two experiments in triplicate; L858R/T790M EGFR.
Protocol: (§1) The cell line NCI-H460 is a model of a large-cell carcinoma and is characterized by wild-type EGFR-TK. By contrast, NCI-H1975 adenocarcinoma cells harbor a point mutation (L858R) in exon 21 as well as a secondary mutation (T790M) at the bottom of the hydrophobic ATP binding pocket.
(§2) The human non-small cell lung cancer cell lines, NCI-H460 (large cell) and NCI-H1975 (adenocarcinoma), were obtained from the American Type Culture Collection (Rockville, Md., USA). […] Cells were incubated at a constant temperature at 37° C. in a humidified atmosphere containing 5% CO2 and were subcultured every 2 to 3 days in order to maintain cells in logarithmic growth. The cytotoxicity studies were carried out according to a standard protocol using the Celltiter 96 aqueous nonradioactive cell proliferation assay kit (Promega, Madison, Wis.). Stock solutions (10 mM) of all drugs were made in DMF and serially diluted with media prior to incubation with cancer cells. IC50 values were calculated from dose-response curves using sigmoidal curve fits in GraphPad Prism (GraphPad Software, La Jolla, Calif.).
Assay [2] has as its system NCI-H460 cells. In words: Cell proliferation assay (Celltiter 96), NCI-H460. The settings on record: Homo sapiens, NCI-H460, read-out: IC50 NCI-H460.
Protocol: as §1, §2

The IC50 is the concentration that gives 50% inhibition. For `CCOc1cc2ncnc(Nc3ccc(F)c(Cl)c3)c2cc1N(C)C(=S)NC` [Compound 7, 1-(4-((3-Chloro-4-fluorophenyl)amino)-7-ethoxyquinazolin-6-yl)-1,3-dimethylthiourea], the IC50 in assay [1] came out at 51.7 ± 1.1 µM; in assay [2], 36 ± 4.4 µM.

These data come from US10047057B2, “Functionalized tyrosine kinase inhibitors modified with precious metal electrophiles and methods associated therewith” (WAKE FOREST UNIVERSITY, priority 2014, dated 2018).
